What follows are compounds tested against T1, human PAD4 (Homo sapiens, UniProt Q9UM07) (assay: In vitro PAD4 BAEE biochemical assay). Conditions: BAEE substrate 3 mM, 5 nM PAD4, 2 mM calcium chloride; geometric mean of multiple experiments.
T1 construct: human PAD4 (NM_012387), A2-P663, was PCR amplified; His-SUMO (N, cleaved yes); made in house; host or cells: E. coli BL21(DE3)
In short: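 PAD4 5 nM, CaCl2 2 mM, BAEE 3 mM final; 50 mM MOPS pH 7.6, 50 mM NaCl, 0.05% Tween-20, 2 mM DTT. Cpd + enzyme 30 min 25 °C; substrate 2 h 25 °C; EDTA stop; OPA detection 1 h. IC50 4-parameter fit.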

T1 sequence (Q9UM07 2-663): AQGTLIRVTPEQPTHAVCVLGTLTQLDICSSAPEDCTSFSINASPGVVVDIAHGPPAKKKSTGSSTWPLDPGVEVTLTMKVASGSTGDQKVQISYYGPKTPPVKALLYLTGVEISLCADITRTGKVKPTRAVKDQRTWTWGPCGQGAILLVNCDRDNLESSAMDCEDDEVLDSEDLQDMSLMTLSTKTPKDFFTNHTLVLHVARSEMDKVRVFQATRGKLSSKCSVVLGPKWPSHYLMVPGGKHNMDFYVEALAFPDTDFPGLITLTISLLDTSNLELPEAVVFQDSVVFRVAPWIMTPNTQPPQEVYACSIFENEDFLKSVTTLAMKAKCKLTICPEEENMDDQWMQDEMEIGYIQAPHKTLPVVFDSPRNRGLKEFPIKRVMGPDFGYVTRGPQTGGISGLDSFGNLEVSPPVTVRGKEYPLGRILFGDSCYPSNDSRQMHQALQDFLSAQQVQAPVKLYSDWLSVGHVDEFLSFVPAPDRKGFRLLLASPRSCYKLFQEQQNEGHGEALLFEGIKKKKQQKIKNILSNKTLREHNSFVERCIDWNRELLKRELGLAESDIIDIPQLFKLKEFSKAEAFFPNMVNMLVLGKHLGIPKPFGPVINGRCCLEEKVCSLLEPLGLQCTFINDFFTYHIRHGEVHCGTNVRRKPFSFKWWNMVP

Compound	IC50 [nM]
C[C@H]1NC(=O)c2ccc(Cl)nc2CC[C@@H]2C[C@@H]2Cn2c(-c3nc4cc(C(=O)N5C[C@H](N)[C@@H]6CC[C@H]5C6)cc(F)c4n3C3CC3)cc3ccc1nc32 [Example 709, (3~{S),5~{R},16~{R})-22-[5-[(1~{S},4~{R},5~ {R})-4-amino-2-azabicyclo[3.2.1]octane-2-carbonyl]-1-cyclopropyl-7-fluoro-benzimidazol-2-yl]-10-chloro-16-methyl-1,9,15,24-tetrazapentacyclo[15.5.2.0^ {3,5}.0^{8,13}.0^{20,23}] tetracosa-8(13),9,11, 17(24),18,20(23),21-heptaen-14-one]	25
C[C@H]1NC(=O)c2ccc(Cl)nc2CC[C@H]2C[C@H]2Cn2c(-c3nc4cc(C(=O)N5C[C@H](N)[C@@H]6CC[C@H]5C6)cc(F)c4n3C3CC3)cc3ccc1nc32 [Example 710, (3~{R),5~{S},16~{R})-22-[5-[(1~{S},4~{R},5~{R})-4-amino-2-azabicyclo[3.2.1]octane-2-carbonyl]-1-cyclopropyl-7-fluoro-benzimidazol-2-yl]-10-chloro-16-methyl-1,9,15,24-tetrazapentacyclo[15.5.2.0^ {3,5}.0^{8,13}.0^{20,23}] tetracosa-8(13),9,11,17(24), 18,20(23),21-heptaen-14-one]	18
COc1cc(C(=O)N2C[C@H](N)[C@@H]3CC[C@H]2C3)cc2nc(-c3cc4ccc5nc4n3CCCCC[C@@]3(F)C[C@H]3C(=O)N[C@@H]5C)n(C)c12 [Example 711, (2~{R},5~{S},7~{R})-14-[5-[(1~{S),4~{R},5~{R})-4-amino-2-azabicyclo[3.2.1]octane-2-carbonyl]-7-methoxy-1-methyl-benzimidazol-2-yl]-7-fluoro-2-methyl-3,13,19-triazatetracyclo[11.5.2.0^ {5,7}.0^{16,20}]icosa-1(19), 14,16(20),17-tetraen-4-one]	19
C[C@H]1NC(=O)[C@@H]2C[C@]2(F)CCCCCn2c(-c3nc4cc(C(=O)N5C[C@H](N)[C@@H]6CC[C@H]5C6)cc(F)c4n3C3CC3)cc3ccc1nc32 [Example 712, (2~{R},5~{S},7~{R})-14-[5-[(1~{S},4~{R},5~ {R})-4-amino-2-azabicyclo [3.2.1]octane-2-carbonyl]-1-cyclopropyl-7-fluoro-benzimidazol-2-yl]-7-fluoro-2-methyl-3,13,19-triazatetracyclo[11.5.2.0^ {5,7}.0^{16,20}] icosa-1(19),14,16(20), 17-tetraen-4-one]	24
COc1cc(C(=O)N2C[C@H](N)[C@@H]3CC[C@H]2C3)cc2nc(-c3cc4ccc5nc4n3CCCCCc3nc(Cl)ccc3C(=O)N[C@@H]5C)n(C)c12 [Example 713, (2~{R})-17-[5-[(1~{S}, 4~{R},5~{R})-4-amino-2-azabicyclo[3.2.1]octane-2-carbonyl]-7-methoxy-1-methyl-benzimidazol-2-yl]-8-chloro-2-methyl-3,9,16,22-tetrazatetracyclo [14.5.2.0^{5,10).0^{19,23}] tricosa-1(22),5(10),6,8,17,19(23), 20-heptaen-4-one]	19
C[C@H]1NC(=O)c2ccc(Cl)nc2CCCCCn2c(-c3nc4cc(C(=O)N5C[C@H](N)[C@@H]6CC[C@H]5C6)cc(OC(F)(F)F)c4n3C)cc3ccc1nc32 [Example 714, (2~{R})-17-[5-[(1~{S},4~{R}, 5~{R})-4-amino-2-azabicyclo [3.2.1]octane-2-carbonyl]-1-methyl-7-(trifluoromethoxy)benzimidazol-2-yl]-8-chloro-2-methyl-3,9,16,22-tetrazatetracyclo[14.5.2.0^ {5,10).0^{19,23}]tricosa-1(22), 5(10),6,8,17,19(23),20-heptaen-4-one]	40
C[C@H]1NC(=O)[C@@H]2C[C@@]2(F)CCCCCn2c(-c3nc4cc(C(=O)N5C[C@H](N)[C@@H]6CC[C@H]5C6)cc(OC(F)(F)F)c4n3C)cc3ccc1nc32 [Example 715, (2~{R},5~{S},7~{S})-14-[5-[(1~{S},4~{R},5~{R})-4-amino-2-azabicyclo[3.2.1]octane-2-carbonyl]-1-methyl-7-(trifluoromethoxy)benzimidazol-2-yl]-7-fluoro-2-methyl-3,13,19-triazatetracyclo[11.5.2.0^ {5,7}.0^{16,20}]icosa-1(19), 14,16(20),17-tetraen-4-one]	19
COc1cc(C(=O)N2C[C@H](N)[C@@H]3CC[C@H]2C3)cc2nc(-c3cc4ccc5nc4n3CC(F)(F)CCCc3ccccc3C(=O)N[C@@H]5C)n(C)c12 [Example 716, (2~{R})-17-[5-[(1~{S},4~ {R},5~{R})-4-amino-2-azabicyclo[3.2.1]octane-2-carbonyl]-7-methoxy-1-methyl-benzimidazol-2-yl]-14,14-difluoro-2-methyl-3,16,22-triazatetracyclo [14.5.2.0^{5,10}.0^{19,23}] tricosa-1(22),5(10),6,8,17, 19(23),20-heptaen-4-one]	13
C[C@H]1NC(=O)[C@@H]2C[C@@]2(F)CCCCCn2c(-c3nc4cc(C(=O)N5C[C@H](N)[C@@H]6CC[C@H]5C6)cc(F)c4n3C)cc3ccc1nc32 [Example 717, (2~{R},5~{S},7~{S})-14-[5-[(1~{S},4~{R},5~{R})-4-amino-2-azabicyclo[3.2.1]octane-2-carbonyl]-7-fluoro-1-methyl-benzimidazol-2-yl]-7-fluoro-2-methyl-3,13,19-triazatetracyclo [11.5.2.0^{5,7}.0^{16,20}] icosa-1(19),14,16(20), 17-tetraen-4-one]	11
COc1cc(C(=O)N2CC[C@@H](OC)[C@@H](N)C2)cc2nc(-c3cc4ccc5nc4n3CCCCCC[C@@](C)(C(F)(F)F)C(=O)N[C@@H]5C)n(C)c12 [Example 719, (8~{R},11~{R})-17-[5-[(3~{S},4~{R})-3-amino-4-methoxy-piperidine-1-carbonyl]-7-methoxy-1-methyl-benzimidazol-2-yl]-8,11-dimethyl-8-(trifluoromethyl)-1,10,19-triazatricyclo[10.5.2.0^ {15,18}]nonadeca-12(19),13,15(18),16-tetraen-9-one]	91
COc1cc(C(=O)N2CC[C@@H](OC)[C@@H](N)C2)cc2nc(-c3cc4ccc5nc4n3CCCCCC[C@](C)(C(F)(F)F)C(=O)N[C@@H]5C)n(C)c12 [Example 720, (8~{S},11~{R})-17-[5-[(3~ {S},4~{R})-3-amino-4-methoxy-piperidine-1-carbonyl]-7-methoxy-1-methyl-benzimidazol-2-yl]-8,11-dimethyl-8-(trifluoromethyl)-1,10,19-triazatricyclo[10.5.2.0^ {15,18}]nonadeca-12(19),13,15(18),16-tetraen-9-one]	65
COc1cc(C(=O)N2C[C@H]3CC[C@@H]2[C@@H]3N)cc2nc(-c3cc4ccc5nc4n3CCCCCC[C@@](C)(C(F)(F)F)C(=O)N[C@@H]5C)n(C)c12 [Example 722, (8~{R},11~{R})-17-[5-[(1~{R},4~{R},7~{R})-7-amino-2-azabicyclo [2.2.1]heptane-2-carbonyl]-7-methoxy-1-methyl-benzimidazol-2-yl]-8,11-dimethyl-8-(trifluoromethyl)-1,10,19-triazatricyclo [10.5.2.0^{15,18}]nonadeca-12(19),13,15(18),16-tetraen-9-one]	174

From US11976083B2, “Inhibitors of peptidylarginine deiminases” (Gilead Sciences, Inc., priority 2020, dated 2024)
